Experimental findings from PubChem BioAssay (NCI) are described below.

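Assay format: 96-well plates, 48-hour exposure. At the GI50, growth is halved. TGI is the concentration that stops growth completely.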 Some results are limits rather than exact numbers.

Among the test systems are NCI-H226 lung; HT29 colon; 786-0 renal; SNB-19 CNS; UACC-257 melanoma; SK-MEL-2 melanoma; HOP-92 NSCLC; OVCAR-4 ovarian; A498 renal.
Holding throughout (experiment): NCI anticancer screen, dose series, 48 h

Turning to `CCOC(=O)c1ccc(N2C(=O)Cc3ccccc3C2=O)cc1`, the TGI with NCI-H226 lung, in the experiment with HT29 colon, with 786-0 renal, in the experiment on SNB-19 CNS, in the experiment on UACC-257 melanoma and with SK-MEL-2 melanoma was over 100 µM throughout.

With `O=C1C(=O)N(c2nccs2)C(=O)C(=O)C1c1nc2ccccc2s1`, the TGI with NCI-H226 lung, with HT29 colon, in the experiment with 786-0 renal, in the experiment on HOP-92 NSCLC, in the experiment with SNB-19 CNS and in the experiment on OVCAR-4 ovarian was over 100 µM each time. Besides, the TGI in the experiment with UACC-257 melanoma and in the experiment on SK-MEL-2 melanoma was over 100 µM throughout.

With `CCN(CC)c1ccc(N=C2C=C(Cl)C(=O)c3ncccc32)c(C)c1`, the TGI in the experiment with HT29 colon came out at 30.2 µM; in the experiment on 786-0 renal it was 12.2 µM; in the experiment on HOP-92 NSCLC, 7.2 µM; with SNB-19 CNS it was 89.4 µM; in the experiment on OVCAR-4 ovarian, 18.3 µM; with UACC-257 melanoma, 7.29 µM. The same compound displayed a TGI with SK-MEL-2 melanoma of over 100 µM.

For the compound `COc1nc2c(nc(N)n2C2OCC(O)C(O)C2O)c(=O)n1C` (configuration not stated), the TGI with NCI-H226 lung, in the experiment on HT29 colon, with 786-0 renal, with HOP-92 NSCLC, in the experiment with A498 renal and in the experiment with SNB-19 CNS was over 100 µM throughout. For the same compound, the TGI in the experiment with OVCAR-4 ovarian and with UACC-257 melanoma was over 100 µM each time.

Take `O=C(Nc1ccc(Br)cc1)C(=O)C(C(=O)c1ccccc1F)C1OC(=O)c2ccccc21` (configuration not stated): the TGI is 19.7 µM in the experiment with NCI-H226 lung; over 100 µM in the experiment on HT29 colon; 56.8 µM in the experiment on 786-0 renal; 65.2 µM with HOP-92 NSCLC; over 100 µM with A498 renal; over 100 µM with SNB-19 CNS. In addition, the figures for the TGI in the experiment on OVCAR-4 ovarian, with UACC-257 melanoma and in the experiment on SK-MEL-2 melanoma were 76 µM, over 100 µM and 68.6 µM, respectively.

Regarding `CC1(C(=O)O)CCOc2ccccc21` (configuration not stated), the TGI in the experiment with NCI-H226 lung, with HT29 colon, in the experiment on 786-0 renal, in the experiment with HOP-92 NSCLC, with A498 renal and in the experiment with SNB-19 CNS was over 100 µM each time. In addition, the TGI in the experiment on OVCAR-4 ovarian and in the experiment with UACC-257 melanoma was over 100 µM throughout.

Regarding `COc1cc(/C=C\c2ccc(Br)cc2)cc(OC)c1OC`, the TGI with HT29 colon was 15 µM; in the experiment with 786-0 renal, 13.7 µM; in the experiment with HOP-92 NSCLC it was over 100 µM; in the experiment with SNB-19 CNS it was over 100 µM; in the experiment with OVCAR-4 ovarian, 64.1 µM; with UACC-257 melanoma, 11.3 µM. In the experiment on SK-MEL-2 melanoma, this compound displayed a TGI of over 100 µM.

As to `N#Cc1ccc(Oc2cccc(Oc3ccccc3)c2)cc1C#N`, the GI50 with HT29 colon, in the experiment with 786-0 renal and in the experiment on HOP-92 NSCLC was over 100 µM each time. In addition, the TGI in the experiment with HT29 colon, in the experiment with 786-0 renal, with HOP-92 NSCLC, with A498 renal, with SNB-19 CNS and with OVCAR-4 ovarian was over 100 µM throughout. Moreover, the TGI in the experiment with SK-MEL-2 melanoma is over 100 µM.

Turning to `O=C(Nc1nc2ccc([N+](=O)[O-])cc2s1)C(=O)C(C(=O)c1ccncc1)C1OC(=O)c2ccccc21` (configuration not stated), the TGI in the experiment on NCI-H226 lung, with HT29 colon, in the experiment with 786-0 renal, in the experiment with HOP-92 NSCLC, in the experiment on A498 renal and in the experiment with SNB-19 CNS was over 100 µM in each case. Also, the TGI in the experiment with OVCAR-4 ovarian and in the experiment with UACC-257 melanoma was over 100 µM throughout.

In the case of `CC(NC(=O)C(=O)N/N=C1\C[C@@H](c2ccccc2)Nc2ccccc21)c1ccccc1` (some centres not stated), the TGI with NCI-H226 lung, in the experiment on HT29 colon, in the experiment on 786-0 renal, in the experiment with HOP-92 NSCLC, with SNB-19 CNS and in the experiment with OVCAR-4 ovarian was over 100 µM in each case. For the same compound, the TGI in the experiment on UACC-257 melanoma and with SK-MEL-2 melanoma was over 100 µM throughout.

Regarding `O=C(O)c1ccccc1N=Nc1ccc2oc(=O)c(C(=O)Nc3ccccc3)cc2c1`, the TGI was over 100 µM with NCI-H226 lung; over 100 µM in the experiment with HT29 colon; over 100 µM in the experiment with 786-0 renal; over 100 µM in the experiment with SNB-19 CNS; 59.4 µM with UACC-257 melanoma.

For `CCOC(=O)C(C)(C)Oc1ccc2c(-c3ccc(Cl)cc3)c(-c3ccc(Cl)cc3)c(=O)oc2c1`, the TGI in the experiment on NCI-H226 lung, in the experiment on HT29 colon, with 786-0 renal, in the experiment with A498 renal, with SNB-19 CNS and in the experiment on OVCAR-4 ovarian was over 100 µM in each case. Further, the TGI in the experiment on UACC-257 melanoma and in the experiment with SK-MEL-2 melanoma was over 100 µM each time.

As to `OCC(O)C(O)C(O)c1nn(-c2ccccc2)c2nc3cc(Cl)c(Cl)cc3nc12` (configuration not stated), the TGI in the experiment with NCI-H226 lung was over 100 µM; with HT29 colon it was 57 µM; in the experiment on 786-0 renal it was over 100 µM; in the experiment on SNB-19 CNS, over 100 µM; in the experiment on OVCAR-4 ovarian it was over 100 µM; in the experiment with UACC-257 melanoma it was over 100 µM. For the same compound, the TGI with SK-MEL-2 melanoma stood at 98 µM.

Take `CS(=O)(=O)N(CCC#N)c1ccc(C=O)cc1`: the TGI in the experiment with NCI-H226 lung, in the experiment with HT29 colon, in the experiment on 786-0 renal, in the experiment with A498 renal, with SNB-19 CNS and in the experiment with OVCAR-4 ovarian was over 100 µM each time. Moreover, the TGI in the experiment on UACC-257 melanoma and in the experiment with SK-MEL-2 melanoma was over 100 µM in each case.

For `O=C(NC1C2CC3CC(C2)CC1C3)/C(Cl)=C1/Sc2ccccc2NC1=O` (configuration not stated), the TGI in the experiment on NCI-H226 lung, in the experiment with HT29 colon, with 786-0 renal, in the experiment with HOP-92 NSCLC, in the experiment on A498 renal and in the experiment on SNB-19 CNS was over 100 µM in each case. Besides, the TGI in the experiment on OVCAR-4 ovarian and in the experiment with UACC-257 melanoma was over 100 µM throughout.

On to `CC1CCCc2c1c1ccc3c(O)cccc3c1oc2=O` (configuration not stated), for which the TGI was over 100 µM with NCI-H226 lung; over 100 µM in the experiment on HT29 colon; 64.7 µM with 786-0 renal; over 100 µM in the experiment with SNB-19 CNS; 91.3 µM in the experiment with OVCAR-4 ovarian; over 100 µM in the experiment with UACC-257 melanoma. Besides, the TGI in the experiment on SK-MEL-2 melanoma is over 100 µM.

For the compound `COc1ccc2c(CCNC(=O)/C=C/c3ccccc3)c(C(C)=O)[nH]c2c1[N+](=O)[O-]`, the TGI was 46.7 µM in the experiment on NCI-H226 lung; over 100 µM in the experiment on HT29 colon; over 100 µM in the experiment with 786-0 renal; 76.5 µM in the experiment with A498 renal; over 100 µM in the experiment on SNB-19 CNS; over 100 µM in the experiment on OVCAR-4 ovarian. Further, the TGI in the experiment on UACC-257 melanoma and in the experiment with SK-MEL-2 melanoma was over 100 µM each time.

Consider `CCOC(=O)N1C(c2ccccc2)C=CC(c2ccccc2)N1C(=O)OCC` (configuration not stated), for which the TGI in the experiment on HT29 colon, in the experiment with 786-0 renal, with HOP-92 NSCLC, in the experiment with A498 renal, with SNB-19 CNS and with OVCAR-4 ovarian was over 100 µM throughout. Besides, the TGI in the experiment on UACC-257 melanoma and with SK-MEL-2 melanoma was over 100 µM throughout.

As to `Cc1ccccc1C(=O)Oc1ccc(OCc2ccccc2)cc1`, the TGI with HT29 colon, with 786-0 renal, in the experiment with HOP-92 NSCLC, in the experiment with A498 renal, in the experiment with SNB-19 CNS and in the experiment with OVCAR-4 ovarian was over 100 µM in each case. Moreover, the TGI in the experiment with UACC-257 melanoma is over 100 µM.

As for `CC(=O)OC1CCC2C(=CCC3C2(C)C(=O)CC2(C)C(C4(C)OC(C(C)C)=CC4=O)C(O)CC32C)C1(C)C` (configuration not stated), the TGI is over 100 µM in the experiment with NCI-H226 lung; 32.3 µM with HT29 colon; over 100 µM in the experiment with 786-0 renal; over 100 µM with HOP-92 NSCLC; over 100 µM in the experiment on A498 renal; over 100 µM in the experiment with SNB-19 CNS. In the experiment with SK-MEL-2 melanoma, the TGI was 62.3 µM.

For the compound `Cn1ccnc1CCc1ccc(Cl)c(Cl)c1`, the TGI in the experiment on NCI-H226 lung, in the experiment on HT29 colon, with 786-0 renal, in the experiment with HOP-92 NSCLC, with A498 renal and with OVCAR-4 ovarian was over 100 µM in each case. In addition, the TGI in the experiment on UACC-257 melanoma and in the experiment on SK-MEL-2 melanoma was over 100 µM in each case.

On to `Cc1ccc(C=NC23CC4CC(CC(C4)C2)C3)cc1`, for which the TGI with NCI-H226 lung, in the experiment with HT29 colon, in the experiment with 786-0 renal, with A498 renal, in the experiment with OVCAR-4 ovarian and with UACC-257 melanoma was over 100 µM each time. The compound also had a TGI in the experiment with SK-MEL-2 melanoma of over 100 µM.

Take `CCOC(=O)C1=C(Nc2ccc(Br)cc2)OC/C1=N\NC(=O)c1ccccc1O`: the TGI is over 84 µM with NCI-H226 lung; over 100 µM in the experiment on HT29 colon; over 100 µM in the experiment with 786-0 renal; 99.3 µM in the experiment with A498 renal; over 100 µM in the experiment with SNB-19 CNS; over 100 µM with OVCAR-4 ovarian. Also, the TGI with UACC-257 melanoma was over 95.3 µM; in the experiment with SK-MEL-2 melanoma, over 100 µM.

Regarding `NCc1c(C(N)=O)ncn1Cc1ccccc1`, the TGI in the experiment with HT29 colon, in the experiment with 786-0 renal, in the experiment with HOP-92 NSCLC, with A498 renal, with SNB-19 CNS and with OVCAR-4 ovarian was over 100 µM throughout. For the same compound, the TGI with UACC-257 melanoma was over 100 µM.

For `C=C1CCCC2[C@](C)(CC3=C(O)C(=O)C=C(OC)C3=O)[C@@H](C)CC[C@]12C` (some centres not stated), the TGI with HT29 colon is 36.1 µM; in the experiment with 786-0 renal, 18.3 µM; in the experiment with OVCAR-4 ovarian, 78.2 µM; with UACC-257 melanoma it was 16.4 µM; in the experiment with SK-MEL-2 melanoma, 12.5 µM.
